{"source": "patent US9540615B2", "about": "“Combined chemical and genetic approaches for generation of induced pluripotent stem cells” (The Scripps Research Institute, priority 2008, dated 2017)", "test_system": "OG2 MEFs transduced with OK (Oct4 and Klf4)", "assay": "iPSC generation from OK-transduced OG2 MEFs (GFP+ colonies), including second synergist screen with BIX", "assay_type": "cell-based, mouse", "conditions": "OK transduced OG2 MEFs; 3 independent experiments, standard deviation; OK alone 0.5±0.7", "description": "Primary 129S2/SvPasCrlf (primary screen) or ROSA26^+/−/OG2^+/− (secondary screen) MEFs were plated onto Matrigel (1:50; BD Biosciences, Bedford, Mass.) coated dishes at a density of 3.5×10^4 cells per well of a 6-well plate. Twenty-four hours later, these cells were transduced overnight with defined retroviruses at 37° C., 5% CO2. Twelve to fourteen hours later, the media on the transduced cells was changed to mESC medium [Knockout DMEM, 10% ES-qualified FBS, 10% Knockout serum replacement, 1% Glutamax, 1% Non-essential amino acids, penicillin/streptomycin, 0.1 mM β-mercaptoethanol, 1% EmbryoMax ESC Qualified Nucleosides (Millipore, Temecula, Calif.), and 10^3 U/ml LIF (Millipore)] (all products were from Invitrogen, Carlsbad, Calif., except where mentioned). On that same day, individual small molecules from our known drug collection were added to the cells at a range between 0.5 and 2 μM. Compound treatment was continued for 10-14 days; the cells were fixed and stained on day 14-21 using a standard ALP detection kit (Millipore). For the second screen, 1 μM BIX was added to the mESC medium 1 day after transduction. Five days later, in addition to 1 μM BIX, individual small molecule from the known drug collection was added to each well, at a range between 0.5 and 2 μM. Mouse ESC media with defined small molecules was refreshed every three days until colonies with a similar morphology to mESCs were observed, which was usually between 14-21 days after transduction. […] Further characterization studies and repeats were carried either on primary 129S2/SvPasCrlf or ROSA26^+/−/OG2^+/− MEFs. When ROSA26^+/−/OG2^+/− MEFs were used, the iPSC colonies could also be identified through GFP expression, as a marker of Oct4 expression. Once iPSC colonies were identified, they were picked for expansion on MEF feeder cells in mESC medium."}
{"compound": "COc1cc2nc(N3CCCN(C)CC3)nc(NC3CCN(Cc4ccccc4)CC3)c2cc1OC", "note": "[BIX01294]", "values": [{"measurement": "number of GFP+ colonies (reprogramming efficiency)", "result": "2.5±0.7 colonies per 3.5×10^4 cells"}]}
